Among the data in patent US20220064196A1, “EGFR Inhibitors, Compositions and Methods Thereof” (Betta Pharmaceuticals Co., Ltd., priority 2019, published 2022) are GI50 and IC50 values, retold here.

One test addresses Ba/F3-Del19/T790M/C797S (Homo sapiens, UniProt P00533, T790M/C797S, cells depend on it, form not given). Description: Ba/F3-Del19/T790M/C797S cells proliferation assay (CellTiter Glo). It counts as cell-based. Particulars: cell proliferation, 72 h, read-out: Ba/F3-Del19/T790M/C797S IC50. On the procedure: (§1) a) The medium was preheated in a 37°0 C. water bath in advance.
(§2) b) Remove the cryogenic vials from the liquid nitrogen tank, quickly put it into a 37° C. water bath, and completely melt it in 1 min.
(§3) c) Transfer the cell suspension to a 15 mL centrifuge tube containing 8 mL medium, centrifuge 1000 rpm, 5 min.
(§4) d) Discard the supernatant, resuspend the cells in 1 mL medium, and transfer to a 75 cm^2 flask containing 15 mL medium, culture the cells in an incubator at 37° C., 5% CO2.
(§5) a) The medium was preheated in a 37° C. water bath in advance.
(§6) b) Collect cell to a 15 mL centrifuged tube, centrifuge at 1000 rpm for 5 min. Discard the supernatant, count, and make the cell density at 1×10^4 cells/mL, then place it in a 37° C., 5% CO2 incubator.
(§7) a) The test compound (20 mM stock solution) was diluted to 200uM with 100% DMSO as starting concentration then 3-fold serial diluted with “9+0” concentrations. in a 96-well dilution plate (Cat # P-05525, Labcyte);
(§8) b) The above compound solution was diluted 1:20 times with culture medium to prepare a 10 fold working solution;
(§9) a) Take cells in log phase growth, centrifuge at 1000 rpm for 5 min, then resuspend the cells with culture medium, then count cells;
(§10) b) Cells were seeded to 96-well cell culture plate with density at 2000 cells/well;
(§11) a) Compounds prepared at step 2 were added to cell plate with 15 μL per well, the final concentrations were 1000,333, 111.1, 37,12.3, 4.1, 1.4, 0.5, 0.2 and 0 nM, and the final concentration of DMSO was 0.5%. The blank control well was a culture medium (0.5% DMSO);
(§12) b) The cells were incubated for an additional 72 h in the incubator.
(§13) a) Remove the 96-well cell culture plate and add 50 μl of CTG reagent (CellTiter Glo kit, promega, Cat # G7573).
(§14) b) Plate was shaked for 2 min and then let it cool for 10 min at room temperature.
(§15) c) The Luminescence signal value was read using a PerkinElmer reader. Experimental data analysis
(§16) Data were analyzed using GraphPad Prism 6.0 software to obtain a fitted curve of compound activity.
(§17) Fit the Compound IC50 from non-linear regression equation:
(§18) Y=Bottom+(Top-Bottom)/(1+10((LogIC50-X)×Hill Slope));
(§19) X: The log of the concentration of the compound; Y: Luminescence value.
(§20) The cells proliferation assay results are expressed with IC50, shown as Table 2.

In a further test the target is Ba/F3-L858R/T790M/C797S (Homo sapiens, UniProt P00533, T790M/C797S/L858R, cells depend on it). Description: Ba/F3-L858R/T790M/C797S cells proliferation assay (CellTiter Glo). It counts as cell-based. Particulars: cell proliferation, 72 h, read-out: Ba/F3-L858R/T790M/C797S IC50. The method, then:
as §1, §2, §3, §4, §5, §6, §7, §8, §9, §10, §11, §12, §13, §14, §15, §16, §17, §18, §19, §20

Another test deals with A431 (WT). Description: A431 cells proliferation assay (CellTiter Glo). Type of test: cell-based. Particulars: Homo sapiens, A-431; cell proliferation, 72 h. The method, then:
Test 4 A431 Cells Proliferation Assay
DMEM and 10% FBS and 1% PS.
as §5, §2, §3, §4, §6
a) The test compound (20 mM stock solution) was diluted to 2 mM with 100% DMSO as starting concentration then 3-fold serial diluted with “9+0” concentrations. in a 96-well dilution plate (Cat # P-05525, Labcyte);
b) The above compound solution was diluted 1:40 times with culture medium to prepare a 5 fold working solution;
as §9
b) Cells were seeded to 96-well cell culture plate with density at 5000 cells/well;
a) Compounds prepared at step 2 were added to cell plate with 40 μL per well, the final concentrations were 10000, 3333,1111.1, 370.4, 123.5, 41.2, 13.7, 4.6, 1.5 and 0 nM, and the final concentration of DMSO was 0.5%. The blank control well was a culture medium (0.5% DMSO);
as §12
a) Remove the 96-well cell culture plate and add 60 μl of CTG reagent (CellTiter Glo kit, promega, Cat # G7573).
as §14
c) The Luminescence signal value was read using a PerkinElmer reader.
Experimental Data Analysis
as §16, §17
Y=Bottom+(Top-Bottom)/(1+10((LogIC50-X)×HillSlope));
as §19
The cells proliferation assay results are expressed with IC50, shown as Table 3.

The target in the next test is EGFR Del19/T790M/C797S (Homo sapiens, UniProt P00533, T790M/C797S, form not given). Description: Kinase assay (mobility shift), EGFR Del19/T790M/C797S. It counts as biochemical. The method, then: (§21) Test 1 Kinase Assay for EGFR Del19/T790M/C797S and EGFR Wildtype
EGFR Del19/T790M/C797S, sequence (P00533 with tags, fused parts or gaps DEL746-750/T790M/C797S, form open): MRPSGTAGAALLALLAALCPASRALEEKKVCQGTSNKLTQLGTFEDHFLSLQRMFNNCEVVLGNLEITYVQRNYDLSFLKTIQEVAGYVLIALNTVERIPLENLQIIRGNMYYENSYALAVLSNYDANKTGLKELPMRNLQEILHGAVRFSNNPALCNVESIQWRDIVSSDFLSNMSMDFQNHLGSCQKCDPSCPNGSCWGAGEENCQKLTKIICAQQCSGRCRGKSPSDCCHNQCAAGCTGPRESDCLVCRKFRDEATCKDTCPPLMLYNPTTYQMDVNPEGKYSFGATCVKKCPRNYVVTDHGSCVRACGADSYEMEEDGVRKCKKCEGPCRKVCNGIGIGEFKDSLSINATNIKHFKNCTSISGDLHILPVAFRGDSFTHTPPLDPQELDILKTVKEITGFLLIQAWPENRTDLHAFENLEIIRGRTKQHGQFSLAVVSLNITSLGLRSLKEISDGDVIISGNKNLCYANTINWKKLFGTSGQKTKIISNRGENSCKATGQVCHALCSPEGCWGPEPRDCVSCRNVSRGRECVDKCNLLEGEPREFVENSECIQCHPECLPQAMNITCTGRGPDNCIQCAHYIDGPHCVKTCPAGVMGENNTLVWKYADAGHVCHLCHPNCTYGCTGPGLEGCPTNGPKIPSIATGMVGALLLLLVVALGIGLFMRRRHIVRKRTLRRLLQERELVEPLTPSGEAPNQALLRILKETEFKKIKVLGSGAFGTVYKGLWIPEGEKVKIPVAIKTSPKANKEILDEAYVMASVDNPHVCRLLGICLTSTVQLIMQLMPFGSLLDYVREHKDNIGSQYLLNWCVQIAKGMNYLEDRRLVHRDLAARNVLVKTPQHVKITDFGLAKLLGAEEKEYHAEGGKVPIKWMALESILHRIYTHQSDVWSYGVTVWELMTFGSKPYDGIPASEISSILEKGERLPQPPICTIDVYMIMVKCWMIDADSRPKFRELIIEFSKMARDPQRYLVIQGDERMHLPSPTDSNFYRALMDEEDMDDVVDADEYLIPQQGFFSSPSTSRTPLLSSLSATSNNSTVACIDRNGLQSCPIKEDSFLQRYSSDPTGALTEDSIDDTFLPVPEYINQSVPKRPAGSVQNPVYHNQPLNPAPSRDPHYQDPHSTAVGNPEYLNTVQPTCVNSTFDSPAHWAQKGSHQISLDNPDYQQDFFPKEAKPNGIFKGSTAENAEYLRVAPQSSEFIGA
(§22) Enzyme reaction protocol are as follows:
(§23) 1. Preparing 1* Kinase buffer as followed.
(§24) 2. Preparing Compound Concentration Gradient: Compounds were tested at a concentration of 300 nM, diluted to 100-fold final concentration in 100% DMSO solution in 96-well plates, and compounds were diluted 3 times with Precision, 10 concentrations. Each concentration of the compound was then further diluted to a 5-fold final concentration of the intermediate dilution solution using 1* Kinase buffer.
(§25) 3.5 μL of each of the prepared intermediate dilution compounds was separately added to the compound wells of the 384-well plate, and each concentration was tested for duplicate wells; 5 μL of 5% DMSO was added to the negative control wells and the positive control wells, respectively.
(§26) 4. 2.5-fold final concentration of the kinase solution was prepared using 1*Kinase buffer.
(§27) 5. Add 10 μL of 2.5-fold final concentration of kinase solution to the compound well and positive control well; add 10 μL of 1*Kinase buffer to the negative control well.
(§28) 6. Centrifuge at 1000 rpm for 30 seconds, shake the reaction plate and incubate for 10 minutes at room temperature.
(§29) 7. A mixed solution of 2.5 times the final concentration of ATP and Kinase substrate (5-FAM-EEPLYWSFPAKKK-CONH2) was prepared using 1*Kinase buffer.
(§30) 8. 10 μL of a 2.5-fold final concentration of a mixed solution of ATP and a substrate was added to initiate the reaction.
(§31) 9. Centrifuge the 384-well plate at 1000 rpm for 30 seconds, mix by shaking, and incubate at room temperature for the corresponding time.
(§32) 10. Add 30 μL of the stop solution to stop the kinase reaction, centrifuge at 1000 rpm for 30 seconds, and mix by shaking.
(§33) 11. Read the conversion rate with Caliper EZ Reader.
(§34) Convert conversion values to inhibition values:
(§35) Percent inhibition 32 (max-conversion)/(max-min)*100.
(§36) “max” stands for the mean value of the positive control well ratio; “min” stands for the mean value of the negative control well.
(§37) Fit the data in log(inhibitor) vs. response Variable slope of GraphPad Prism 5 to obtain IC50 values.
(§38) Equation used is: Y=Bottom+(Top-Bottom)/(1+(IC50/X)^HillSlope)

A further test concerns the target EGFR L858R/T790M/C797S (Homo sapiens, UniProt P00533, C797S/L858R/T790M). Description: Kinase assay (mobility shift), EGFR L858R/T790M/C797S. It counts as biochemical. The method, then: [Worded in the source for another variant; this variant is reported under the same test.] as §21, §22, §23, §24, §25, §26, §27, §28, §29, §30, §31, §32, §33, §34, §35, §36, §37, §38

The target in the next test is EGFR WT (Homo sapiens, UniProt P00533). Briefly: Kinase assay (mobility shift), EGFR wildtype. Type of test: biochemical. The conditions noted are these: top concentration 300 nM. On the procedure:
as §21, §22, §23, §24, §25, §26, §27, §28, §29, §30, §31, §32, §33, §34, §35, §36, §37, §38

SMILES strings stand for the structures. Read-outs that look alike come from different tables or passages of the source.

EGFR L858R/T790M/C797S, sequence (P00533 25-1210 T790M/C797S/L858R): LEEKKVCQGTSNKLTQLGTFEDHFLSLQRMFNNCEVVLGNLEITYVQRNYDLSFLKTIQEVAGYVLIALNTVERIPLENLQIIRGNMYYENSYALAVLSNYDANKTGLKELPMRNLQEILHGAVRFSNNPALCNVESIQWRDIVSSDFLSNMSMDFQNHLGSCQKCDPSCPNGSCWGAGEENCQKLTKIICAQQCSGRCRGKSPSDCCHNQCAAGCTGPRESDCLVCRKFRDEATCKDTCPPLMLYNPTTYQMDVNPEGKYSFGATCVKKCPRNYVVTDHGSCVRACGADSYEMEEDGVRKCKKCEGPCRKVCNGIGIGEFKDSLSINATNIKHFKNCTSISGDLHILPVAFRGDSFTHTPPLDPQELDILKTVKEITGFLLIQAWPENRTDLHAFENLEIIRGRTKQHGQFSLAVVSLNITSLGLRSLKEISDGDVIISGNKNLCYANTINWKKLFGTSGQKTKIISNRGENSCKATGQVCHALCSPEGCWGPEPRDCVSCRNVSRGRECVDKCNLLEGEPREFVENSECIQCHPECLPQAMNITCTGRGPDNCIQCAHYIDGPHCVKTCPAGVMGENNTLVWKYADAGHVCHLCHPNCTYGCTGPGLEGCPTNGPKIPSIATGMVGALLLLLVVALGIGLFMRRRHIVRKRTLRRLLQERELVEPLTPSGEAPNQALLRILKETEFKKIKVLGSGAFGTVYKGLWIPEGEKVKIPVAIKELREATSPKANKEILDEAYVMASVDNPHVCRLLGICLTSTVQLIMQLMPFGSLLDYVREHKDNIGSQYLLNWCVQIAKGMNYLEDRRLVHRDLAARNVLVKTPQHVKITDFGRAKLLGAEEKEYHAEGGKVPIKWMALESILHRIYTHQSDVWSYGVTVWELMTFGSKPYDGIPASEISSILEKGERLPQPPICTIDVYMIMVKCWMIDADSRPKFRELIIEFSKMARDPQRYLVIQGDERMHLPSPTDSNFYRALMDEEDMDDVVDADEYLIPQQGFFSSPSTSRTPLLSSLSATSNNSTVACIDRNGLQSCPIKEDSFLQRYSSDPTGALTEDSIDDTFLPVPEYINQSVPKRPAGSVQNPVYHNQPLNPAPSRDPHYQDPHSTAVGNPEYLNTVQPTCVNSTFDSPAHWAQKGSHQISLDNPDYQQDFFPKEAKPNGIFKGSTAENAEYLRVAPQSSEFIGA
EGFR WT, sequence (P00533 25-1210): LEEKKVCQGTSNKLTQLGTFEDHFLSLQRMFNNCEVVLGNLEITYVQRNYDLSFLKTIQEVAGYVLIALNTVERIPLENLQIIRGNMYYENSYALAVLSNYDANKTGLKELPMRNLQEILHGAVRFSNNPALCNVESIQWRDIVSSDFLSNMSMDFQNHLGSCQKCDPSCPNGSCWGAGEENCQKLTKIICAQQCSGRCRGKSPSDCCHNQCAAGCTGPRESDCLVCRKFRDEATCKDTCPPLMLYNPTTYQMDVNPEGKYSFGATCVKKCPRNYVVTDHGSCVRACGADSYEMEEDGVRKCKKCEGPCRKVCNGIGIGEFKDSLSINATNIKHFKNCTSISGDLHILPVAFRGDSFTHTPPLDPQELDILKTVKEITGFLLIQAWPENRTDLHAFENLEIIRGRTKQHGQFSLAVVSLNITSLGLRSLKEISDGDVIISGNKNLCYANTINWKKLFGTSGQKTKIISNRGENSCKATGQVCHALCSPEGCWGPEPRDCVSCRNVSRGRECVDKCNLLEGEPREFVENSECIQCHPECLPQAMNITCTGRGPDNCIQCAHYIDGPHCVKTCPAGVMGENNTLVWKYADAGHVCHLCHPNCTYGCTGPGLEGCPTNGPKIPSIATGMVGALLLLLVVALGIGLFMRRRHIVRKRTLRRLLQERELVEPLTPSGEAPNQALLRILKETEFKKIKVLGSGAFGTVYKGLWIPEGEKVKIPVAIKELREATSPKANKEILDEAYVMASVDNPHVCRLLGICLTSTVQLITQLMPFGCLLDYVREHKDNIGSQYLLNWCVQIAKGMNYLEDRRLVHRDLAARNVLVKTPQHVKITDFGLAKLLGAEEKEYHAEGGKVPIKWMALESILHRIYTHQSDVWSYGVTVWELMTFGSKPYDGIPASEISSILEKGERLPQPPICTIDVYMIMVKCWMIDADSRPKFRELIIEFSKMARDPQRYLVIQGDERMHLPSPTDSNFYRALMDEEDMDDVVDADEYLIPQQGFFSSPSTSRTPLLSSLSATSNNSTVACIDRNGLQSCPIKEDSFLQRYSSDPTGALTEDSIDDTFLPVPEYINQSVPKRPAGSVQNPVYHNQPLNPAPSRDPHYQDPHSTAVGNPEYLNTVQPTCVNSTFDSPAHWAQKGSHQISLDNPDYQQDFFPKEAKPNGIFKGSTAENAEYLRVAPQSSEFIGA
Ba/F3-Del19/T790M/C797S, sequence (P00533 with tags, fused parts or gaps DEL746-750/T790M/C797S, form open): as the sequence (P00533 with tags, fused parts or gaps DEL746-750/T790M/C797S, form open) above

Turning to `CP(C)(=O)c1ccccc1Nc1nc(Nc2ccc(N3CC4(CCC(NCCO)CC4)C3)c(Cl)c2)ncc1Cl` [Example 12, (2-((5-chloro-2-((3-chloro-4-(7-((2-hydroxyethyl)amino)-2-azaspiro[3.5]nonan-2-yl)phenyl)amino)pyrimidin-4-yl)amino)phenyl)dimethylphosphine oxide], the GI50 at Ba/F3-Del19/T790M/C797S (numeric values) is 24.4 nM; at Ba/F3-L858R/T790M/C797S (class symbols), 10 to 50 nM. In addition, the IC50 in the test with A431 (WT) was found to be 121 nM; on EGFR Del19/T790M/C797S, 1 nM.
In the case of `CN(C)C1CC2(CCN(c3ccc(Nc4ncc(Cl)c(Nc5ccccc5P(C)(C)=O)n4)cc3)CC2)C1` [Example 17, (2-((5-chloro-2-((4-(2-(dimethylamino)-7-azaspiro[3.5]nonan-7-yl)phenyl)amino)pyrimidin-4-yl)amino)phenyl)dimethylphosphine oxide], the GI50 at Ba/F3-Del19/T790M/C797S (class symbols) and at Ba/F3-L858R/T790M/C797S (class symbols) was at most 10 nM throughout. Moreover, the IC50 in the test with A431 (WT) was 35 nM; at EGFR Del19/T790M/C797S, 0.7 nM.
Consider `CN(C)C1CC2(CCN(c3ccc(Nc4ncc(Cl)c(Nc5ccccc5P(C)(C)=O)n4)cc3C(F)(F)F)CC2)C1` [Example 19, (2-((5-chloro-2-((4-(2-(dimethylamino)-7-azaspiro[3.5]nonan-7-yl)-3-(trifluoromethyl)phenyl)amino)pyrimidin-4-yl)amino)phenyl)dimethylphosphine oxide], for which the GI50 at Ba/F3-Del19/T790M/C797S (class symbols) and at Ba/F3-L858R/T790M/C797S (class symbols) was 10 to 50 nM throughout. Also, the IC50 is 4.5 nM on EGFR L858R/T790M/C797S (numeric values), 349 nM in the test with A431 (WT) and above 300 nM at EGFR WT.
For `Cc1cc(Nc2nc(Nc3ccccc3P(C)(C)=O)c3nc[nH]c3n2)ccc1N1CCC2(CC1)CC(N)C2` [Example 21, (2-((2-((4-(2-amino-7-azaspiro[3.5]nonan-7-yl)-3-methylphenyl)amino)-9H-purin-6-yl)amino)phenyl)dimethylphosphine oxide], the GI50 at Ba/F3-Del19/T790M/C797S (class symbols) and at Ba/F3-L858R/T790M/C797S (class symbols) was above 50 nM each time. Moreover, the results for the IC50 on EGFR L858R/T790M/C797S (numeric values), in the test with A431 (WT) and on EGFR WT were 0.9 nM, 367 nM and 20 nM, respectively.
With `Cc1cc(Nc2ncc(C#N)c(Nc3ccccc3P(C)(C)=O)n2)ccc1N1CCC2(CC1)CC(N)C2` [Example 28, 2-((4-(2-amino-7-azaspiro[3.5]nonan-7-yl)-3-methylphenyl)amino)-4-((2-(dimethylphosphoryl)phenyl)amino)pyrimidine-5-carbonitrile], the GI50 at Ba/F3-Del19/T790M/C797S (class symbols) and at Ba/F3-L858R/T790M/C797S (class symbols) was above 50 nM throughout. In addition, the IC50 is above 10 nM on EGFR L858R/T790M/C797S (class symbols) and above 300 nM at EGFR WT.
In the case of `CP(C)(=O)c1ccccc1Nc1nc(Nc2ccc(N3CCC4(CC3)CC(N)C4)c(F)c2)ncc1Cl` [Example 29, (2-((2-((4-(2-amino-7-azaspiro[3.5]nonan-7-yl)-3-fluorophenyl)amino)-5-chloropyrimidin-4-yl)amino)phenyl)dimethylphosphine oxide], the figures for the GI50 on Ba/F3-Del19/T790M/C797S (numeric values) and at Ba/F3-L858R/T790M/C797S (numeric values) were 16.9 nM and 32.9 nM, respectively. In addition, the 50% inhibitory concentration (IC50) was found to be 1.6 nM at EGFR L858R/T790M/C797S (numeric values), 95.5 nM with A431 (WT) and 35 nM on EGFR WT.
Turning to `CP(C)(=O)c1ccccc1Nc1nc(Nc2ccc(N3CCC4(CC3)CC(NC3CCCC3)C4)c(Cl)c2)ncc1Cl` [Example 31, (2-((5-chloro-2-((3-chloro-4-(2-(cyclopentylamino)-7-azaspiro[3.5]nonan-7-yl)phenyl)amino)pyrimidin-4-yl)amino)phenyl)dimethylphosphine oxide], the GI50 at Ba/F3-Del19/T790M/C797S (class symbols) and at Ba/F3-L858R/T790M/C797S (class symbols) was 10 to 50 nM throughout. Further, the IC50 came out at 1.6 nM at EGFR L858R/T790M/C797S (numeric values) and 33 nM on EGFR WT.
As to `CP(C)(=O)c1ccccc1Nc1nc(Nc2ccc(N3CCC4(CC3)CC(NCCO)C4)c(Cl)c2)ncc1Cl` [Example 32, (2-((5-chloro-2-((3-chloro-4-(2-((2-hydroxyethyl)amino)-7-azaspiro[3.5]nonan-7-yl)phenyl)amino)pyrimidin-4-yl)amino)phenyl)dimethylphosphine oxide], the GI50 at Ba/F3-Del19/T790M/C797S (class symbols) and at Ba/F3-L858R/T790M/C797S (class symbols) was above 50 nM throughout. The IC50 was determined as 3.2 nM on EGFR L858R/T790M/C797S (numeric values) and 65 nM on EGFR WT.
For the molecule `CP(C)(=O)c1ccccc1Nc1nc(Nc2ccc(N3CCC4(CC3)CC(N3CCCC3)C4)c(Cl)c2)ncc1Cl` [Example 33, (2-((5-chloro-2-((3-chloro-4-(2-(pyrrolidin-1-yl)-7-azaspiro[3.5]nonan-7-yl)phenyl)amino)pyrimidin-4-yl)amino)phenyl)dimethylphosphine oxide], the GI50 at Ba/F3-Del19/T790M/C797S (numeric values) was determined as 9.7 nM; on Ba/F3-L858R/T790M/C797S (numeric values), 11.7 nM. Moreover, the values for the IC50 in the test on A431 (WT) and on EGFR Del19/T790M/C797S were 47 nM and 0.4 nM, respectively.
For `CN(C)[C@@H]1CCN(C2CC3(CCN(c4ccc(Nc5ncc(Cl)c(Nc6ccccc6P(C)(C)=O)n5)cc4Cl)CC3)C2)C1` [Example 34, (R)-(2-((5-chloro-2-((3-chloro-4-(2-(3-(dimethylamino)pyrrolidin-1-yl)-7-azaspiro[3.5]nonan-7-yl)phenyl)amino)pyrimidin-4-yl)amino)phenyl)dimethylphosphine oxide] the same measures were 14.7 nM, 21.7 nM, 53 nM and 0.53 nM.
